Measurements from PubChem BioAssay (NCI).
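Method: 48-hour compound exposure of cells in 96-well plates, five concentrations, linear interpolation of endpoints. TGI: concentration producing complete growth inhibition.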

How the values were obtained:
Experiment in all cases: NCI anticancer screen, dose series, 48 h
[1] = tested on: CAKI-1 renal
[2] = tested on: UACC-257 melanoma
[3] = tested on: TK-10 renal
[4] = tested on: RXF 393 renal
[5] = tested on: SF-539 CNS
[6] = tested on: SW-620 colon
[7] = tested on: OVCAR-5 ovarian
[8] = tested on: CCRF-CEM leukemia
[9] = tested on: SK-MEL-28 melanoma
[10] = tested on: UACC-62 melanoma
[11] = tested on: HOP-62 NSCLC
[12] = tested on: HT29 colon
[13] = tested on: SF-295 CNS
[14] = tested on: MDA-MB-435
[15] = tested on: M14 melanoma
[16] = tested on: SF-268 CNS
[17] = tested on: SR leukemia
[18] = tested on: A549 NSCLC
[19] = tested on: T-47D breast
[20] = tested on: EKVX NSCLC

Row | Structure (SMILES) | TGI [1] [µM] | TGI [2] [µM] | TGI [3] [µM] | TGI [4] [µM] | TGI [5] [µM] | TGI [6] [µM] | TGI [7] [µM] | TGI [8] [µM] | TGI [9] [µM] | TGI [10] [µM] | TGI [11] [µM] | TGI [12] [µM] | TGI [13] [µM] | TGI [14] [µM] | TGI [15] [µM] | TGI [16] [µM] | TGI [17] [µM] | TGI [18] [µM] | TGI [19] [µM] | TGI [20] [µM]
1 | COc1ccc2c(c1)CCc1c-2n(CCN2CCOCC2)c2ccc(OC)cc12 | > 100 | > 100 | > 100 | > 100 | > 100 | > 100 | > 100 | 53.1 | > 100 | > 100 | > 100 | 53.6 | > 100 | > 100 | > 100 | > 100 | 34.8 | > 100 | > 100 | 
2 | COc1ccc(Nc2nc3ccc(C(F)(F)F)cc3nc2C(=O)O)cc1 | > 100 | 96.7 | > 100 | 62.6 | 75.9 | > 100 | 84.9 | 63.5 | > 100 | 67.3 | > 100 | > 100 | 89.4 | > 100 | > 100 | > 100 |  | > 100 | > 100 | > 100
3 | O=C1OCCC[C@H]2O[C@@H](COCc3ccccc3)C[C@@H]12 | > 100 | > 100 | > 100 |  | > 100 | > 100 | > 100 | > 100 | > 100 | > 100 | > 100 | > 100 | > 100 | > 100 | > 100 | > 100 | > 100 | > 100 | > 100 | 
4 | c1ccc2c3nnc(c2c1)SCCCSc1nnc(c2ccccc12)SCCCS3 |  | > 100 | > 100 | 94 | 28.3 | > 100 | > 100 | > 100 | > 100 | 88.8 | 52.8 | > 100 | > 100 | > 100 | > 100 | > 100 | > 100 | > 100 | > 100 | > 100
5 | N#C/C(C(=O)Nc1ccc(Cl)cc1)=C(/N)N1CCOCC1 | > 100 | > 100 |  |  | > 100 | > 100 | > 100 | > 100 | > 100 | > 100 | > 100 | > 100 | > 100 | > 100 | > 100 |  | > 100 | > 100 | > 100 | > 100
6 | Cn1ccoc1=Nc1ccc(Cl)c(Cl)c1 | > 10 | > 10 | > 10 |  | > 10 | > 10 | > 10 | > 10 | > 10 | > 10 | > 10 | > 10 | > 10 | > 10 | > 10 | > 10 | > 10 | > 10 | > 10 | > 10
7 | COCCOC1=C(Cl)C(=O)c2c(O)ccc(O)c2C1=O | 1.11 | 4.85 | 3.24 | 1.7 | 5.46 | 1.4 | 13.7 |  | 5.07 | 10.7 | 9.94 | 7.7 | 35.1 | 2.23 | 3.22 | 13 | 3.19 | 28.5 | 6.61 | 11.5
8 | CC(=O)O[C@H]1C(=O)[C@@]2(C)C(C(OC(=O)c3ccccc3)[C@]3(O)CC(OC(=O)C(O)C(NC(=O)c4ccccc4)c4cccc(Cl)c4)C(C)=C1C3(C)C)[C@]1(OC(C)=O)CO[C@@H]1C[C@@H]2O (some centres undefined) | > 10 | > 10 | > 10 |  | 9.73 | > 10 | > 10 | > 10 |  | > 10 | > 10 | > 10 | > 10 | 5.06 | > 10 | > 10 | 6.72 | > 10 | > 10 | > 10
9 | Nc1nnc2oc3ccc4ccccc4c3cc1-2 | > 100 | > 100 | > 100 | > 100 |  | > 100 | > 100 | > 100 | > 100 | > 100 | > 100 | > 100 | > 100 | > 100 | > 100 | > 100 | 72.7 | > 100 | 65.4 | > 100
10 | COc1ccc2nc3c([N+](=O)[O-])ccc(NCCN(C)C)c3c(NCCN(C)C)c2c1 | > 10 | > 10 | > 10 | 2.33 |  | 3.25 |  | 1.78 | 4.15 | > 10 | 2.73 | 4.51 | 3.03 | 3.01 | > 10 | > 10 | 0.634 | 4.26 | > 10 | 4.59
11 | N=c1oc2ccc(Cl)cc2cc1C(N)=O | > 100 | > 100 |  | > 100 | > 100 | > 100 | > 100 | > 100 | > 100 | 41.3 |  | > 100 |  | 82 | > 100 | > 100 | > 100 | > 100 | 94.6 | 
12 | COC(=O)C(/C(=N/N)C(=O)Nc1cccc(O)c1)c1nc2ccccc2[nH]c1=O (centres undefined) | > 100 | > 100 | > 100 | > 100 | > 100 | > 100 | > 100 |  | > 100 | > 100 | > 100 | > 100 | > 100 | > 100 | > 100 | > 100 | > 100 | > 100 | > 100 | > 100
13 | CC(=O)N(CCCCNC(=O)C(F)(F)F)CCCNC(=O)C(F)(F)F |  | > 100 | > 100 | > 100 | > 100 | > 100 | > 100 | > 100 | > 100 | > 100 | > 100 | > 100 | > 100 | > 100 | > 100 | > 100 | > 100 | > 100 | > 100 | > 100
14 | O=C(NCCCNCCCCNCCCNC(=O)c1cc(-c2ccccc2)nc2ccccc12)c1cc(-c2ccccc2)nc2ccccc12 | 36.3 | 13.3 | 23.8 | 74.2 | 3.62 | 13.1 | 5.26 | 3.63 | 3.3 | 6.77 | 11.2 | 3.57 | 14.4 |  | 5.23 |  | 4.95 | 4.88 | 12.1 | 18
15 | N#CC1=C(N)OC(c2cccc([N+](=O)[O-])c2)C1(C#N)C#N (centres undefined) | 26.6 | 31.3 | 33.8 | 43.3 | 42.5 |  | 42.7 |  |  | 81.6 | 57 | 37.2 | 73.2 | 59.2 | 63.6 | 87 |  | 99.6 | 45.1 | 64.6
16 | Cc1cccc(/C=N/NC(=S)N(C)CCc2ccccn2)n1 | 32.7 | 45.6 | > 100 |  | 6.8 | > 100 | > 100 | 0.0974 | > 100 | 1.02 |  | > 100 | > 100 | > 100 | 2.38 | > 100 | > 100 | > 100 | > 100 | > 100
17 | O=C(N/N=C/c1ccc(Cl)cc1)c1ccccc1Nc1ccccc1C(=O)N/N=C/c1ccc(Cl)cc1 | > 100 | > 100 | > 100 | > 100 |  | > 100 | > 100 | > 100 | > 100 | > 100 | > 100 | > 100 | > 100 | > 100 | > 100 | > 100 | > 100 | > 100 | > 100 | > 100
18 | O=C(Nc1ncc([N+](=O)[O-])s1)c1ccccc1O | > 100 | 98.4 | > 100 | 23.6 | > 100 | > 100 | > 100 |  | > 100 | 41.7 | > 59.6 | > 76.2 | 46.5 | 66.7 | 79.7 | > 75.1 |  | > 87.4 | 64 | > 92.2
19 | COc1ccc(C(=C2C(=O)N(c3ccccc3)C(=O)C2=C(C)C)c2ccc(OC)cc2)cc1 | 42 | > 47.5 | > 47.5 | 5.9 | > 24.2 | > 100 | > 58.6 |  | 20.7 | > 34.2 | > 66.2 | 20.2 | > 49 | 4.9 | 13.5 | > 34.3 | > 100 | > 62.9 | > 100 | > 24.4
20 | O=C1N(CN2CCOCC2)CN(CN2CCOCC2)C(=O)N1Cc1ccc(CN2C(=O)N(CN3CCOCC3)CN(CN3CCOCC3)C2=O)cc1 | > 100 | > 100 | > 100 |  | > 100 | > 100 | > 100 | > 100 | > 100 | 85.4 | > 100 | > 100 | > 100 | > 100 | > 100 | > 100 | > 100 | > 100 | > 100 | > 100
21 | COc1ccc(/C=C2\N=C(c3ccccc3)OC2=O)cc1OC(C)=O |  | > 100 | > 100 | > 100 | > 100 | > 100 | > 100 | 74.4 | > 100 | > 100 | > 100 | > 100 |  | > 100 | > 100 | > 100 | 45 | > 100 | > 100 | 
22 | N=c1oc2ccccc2cc1C(=O)Nc1nccs1 | > 88.1 | > 95.3 | > 50.7 | > 83.9 |  | > 100 | > 100 | 20 | > 100 | > 100 | 64.7 | > 100 | > 100 | > 100 | > 100 | > 100 | 47.7 | > 100 | > 84 | > 79.5
23 | Cn1cnc2c1c(=O)n(CCNCCO)c(=O)n2C | > 100 | > 100 | > 100 | > 100 | > 100 | > 100 | > 100 | > 100 | > 100 | > 100 | > 100 | > 100 | > 100 | > 100 | > 100 | > 100 |  | > 100 | > 100 | > 100
24 | C=C1CC(C)(COc2ccc3c(C)cc(=O)oc3c2)OC1=O (centres undefined) | 7.53 | 4.35 | 4.06 |  | 4.59 | 3.09 | 16.5 | 2.46 | 9.02 | 4.8 | 28.4 | 4.5 | 16.3 | 8.92 | 3.35 | 20.2 | 4.33 | 23.8 | 3.8 | 17.8
25 | Cc1c(N=Nc2ccc(Cl)cc2)c(C)n(C2OC(CO)C(O)C(O)C2O)c(=S)c1C#N (centres undefined) | > 100 | 54.1 | 79.5 | 71.6 | 38 | > 100 | > 100 | 53.5 | 52.3 | 30.5 | 36.8 | > 100 | 83.5 | 42.7 | 36.5 | 52.1 |  | > 100 | > 100 | 93.2
